Results taken from patent US6046331A, “Imidazolones and their use in treating benign prostatic hyperplasia and other disorders” (Synaptic Pharmaceutical Corporation, priority 1998, dated 2000).

Target: T1, human α1d receptor (Homo sapiens, UniProt P25100)
T1 construct: The entire coding region of α1d (1719 bp); expressed in transfected cells; host or cells: LM(tk-) mouse fibroblast line L-α1A (old nomenclature), ATCC CRL 11138
T1 sequence (P25100 1-572): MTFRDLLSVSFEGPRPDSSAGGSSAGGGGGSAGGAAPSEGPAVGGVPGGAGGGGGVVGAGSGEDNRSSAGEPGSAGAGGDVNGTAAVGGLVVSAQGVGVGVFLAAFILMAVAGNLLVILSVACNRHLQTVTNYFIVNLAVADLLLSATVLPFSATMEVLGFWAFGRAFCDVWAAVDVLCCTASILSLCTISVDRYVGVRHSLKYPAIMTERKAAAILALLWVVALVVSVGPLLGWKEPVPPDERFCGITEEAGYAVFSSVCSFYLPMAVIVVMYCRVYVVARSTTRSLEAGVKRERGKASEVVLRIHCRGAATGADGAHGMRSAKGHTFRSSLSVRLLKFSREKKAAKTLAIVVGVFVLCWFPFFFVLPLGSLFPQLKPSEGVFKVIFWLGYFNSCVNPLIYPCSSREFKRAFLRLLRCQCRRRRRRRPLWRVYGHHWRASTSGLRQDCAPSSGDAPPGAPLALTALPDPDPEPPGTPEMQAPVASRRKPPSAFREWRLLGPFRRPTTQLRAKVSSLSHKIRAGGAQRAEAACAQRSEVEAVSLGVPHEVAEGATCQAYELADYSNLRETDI
Assay: Radioligand binding ([^3 H]prazosin) at cloned human α1d receptor
Conditions: LM(tk-) cell membranes, read-out: hα1d Ki
Procedure: Binding affinities were measured for selected compounds of the invention at six cloned human α1 and α2 receptor subtypes, as well as at the L-type calcium channel. The protocols for these experiments are given below.
The activity of compounds at the different human receptors was determined in vitro using cultured cell lines that selectively express the receptor of interest. These cell lines were prepared by transfecting the cloned cDNA or cloned genomic DNA or constructs containing both genomic DNA and cDNA encoding the human α-adrenergic receptors as follows:
α1d Human Adrenergic Receptor: The entire coding region of α1d (1719 bp), including 150 base pairs of 5' untranslated sequence (5' UT) and 300 bp of 3' untranslated sequence (3' UT), was cloned into the BamHI and ClaI sites of the polylinker-modified eukaryotic expression vector pCEXV-3, called EXJ.HR. The construct involved the ligation of partial overlapping human lymphocyte genomic and hippocampal cDNA clones: 5' sequence were contained on a 1.2 kb SmaI-XhoI genomic fragment (the vector-derived BamHI site was used for subcloning instead of the internal insert-derived SmaI site) and 3' sequences were contained on an 1.3 kb XhoI-ClaI cDNA fragment (the ClaI site was from the vector polylinker). Stable cell lines were obtained by cotransfection with the plasmid α1A/EXJ (expression vector containing the α1a receptor gene (old nomenclature)) and the plasmid pGCcos3neo (plasmid containing the aminoglycoside transferase gene) into LM(tk-) cells using calcium phosphate technique. The cells were grown, in a controlled environment (37° C., 5% CO2), as monolayers in Dulbecco's modified Eagle's Medium (GIBCO, Grand Island, N.Y.) containing 25 mM glucose and supplemented with 10% bovine calf serum, 100 units/ml penicillin g, and 100 μg/ml streptomycin sulfate. Stable clones were then selected for resistance to the antibiotic G-418 (1 mg/ml), and membranes were harvested and assayed for their ability to bind [^3 H]prazosin as described below (see "Radioligand Binding assays").
The cell line expressing the human α1d receptor used herein was designated L-α1A (old nomenclature) and was deposited with the American Type Culture Collection, 12301 Parklawn Drive, Rockville, Md. 20852, U.S.A. under the provisions of the Budapest Treaty for the International Recognition of the Deposit of Microorganisms for the Purposes of Patent Procedure. The cell line expressing the human α1d receptor, was accorded ATCC Accession No. CRL 11138, and was deposited on Sep. 25, 1992.
Radioligand Binding Assays for α1 receptors:
Transfected cells from culture flasks were scraped into 5 ml of 5 mM Tris-HCl, 5 mM EDTA, pH 7.5, and lysed by sonication. The cell lysates were centrifuged at 1000 rpm for 5 min at 4° C., and the supernatant was centrifuged at 30,000× g for 20 min at 4° C. The pellet was suspended in 50 mM Tris-HCl, 1 mM MgCl2, and 0.1% ascorbic acid at pH 7.5. Binding of the α1 antagonist [^3 H]prazosin (0.5 nM, specific activity 76.2 Ci/mmol) to membrane preparations of LM(tk-) cells was done in a final volume of 0.25 ml and incubated at 37° C. for 20 min. Nonspecific binding was determined in the presence of […] phentolamine. The reaction was stopped by filtration through GF/B filters using a cell harvester. Inhibition experiments, routinely consisting of 7 concentrations of the tested compounds, were analyzed using a non-linear regression curve-fitting computer program to obtain Ki values.
The compounds described above were assayed using cloned human alpha adrenergic receptors. […] The binding affinities of several compounds are illustrated in the following table.
Binding affinities of selected compounds of the present invention at cloned human α1d, α1b and α1a receptors. (h=human)

COC(=O)c1[nH]c(=O)n(CCCCCN2CCC(C(=O)OC)(c3ccccc3)CC2)c1-c1ccc(F)c(F)c1 [Compound 1, 1-(5-(4-Methoxycarbonyl-4-phenylpiperidin-1-yl)pent-1-yl)-4-methoxycarbonyl-5-(3,4-difluorophenyl)-2,3-dihydro-2(1H)-imidazolone]
Ki: 0.329 µM

COC(=O)c1[nH]c(=O)n(CCCCCN2CCC(C#N)(c3ccccc3)CC2)c1-c1ccc(F)c(F)c1 [Compound 2, 5-(3,4-Difluorophenyl)-2,3-dihydro-4-methoxycarbonyl-1-(5-(4-cyano-4-phenylpiperidin-1-yl)pent-1-yl)-2(1H)-imidazolone]
Ki: 0.367 µM

COC(=O)c1[nH]c(=O)n(CCCCCN2CCC(O)(c3ccccc3)CC2)c1-c1ccc(F)c(F)c1 [Compound 3, 5-(3,4-Difluorophenyl)-2,3-dihydro-4-methoxycarbonyl-1-(5-(4-hydroxy-4-phenylpiperidin-1-yl)pent-1-yl)-2(1H)-imidazolone]
Ki: 2.66 µM

COC(=O)c1[nH]c(=O)n(CCCCCN2CCN(c3ccccc3C(N)=O)CC2)c1-c1cc(F)c(F)c(F)c1 [Compound 4, 1-(5-(4-(2-Aminocarbonylphenyl)piperazin-1-yl)pent-1-yl)-5-(3,4,5-trifluorophenyl)-2,3-dihydro-4-methoxycarbonyl-2(1H)-imidazolone]
Ki: 0.279 µM

COC(=O)c1ccccc1N1CCN(CCCCCn2c(-c3cc(F)c(F)c(F)c3)c(C(=O)OC)[nH]c2=O)CC1 [Compound 5, 5-(3,4,5-Trifluorophenyl)-2,3-dihydro-4-methoxycarbonyl-1-(5-(4-(2-methoxycarbonylphenyl)piperazin-1-yl)pent-1-yl)-2(1H)-imidazolone]
Ki: 0.0157 µM

CCOC(=O)c1[nH]c(=O)n(CCCCCN2CCN(c3ccccc3C(N)=O)CC2)c1-c1ccc(F)c(F)c1 [Compound 6, 1-(5-(4-(2-Aminocarbonylphenyl)piperazin-1-yl)pent-1-yl)-4-ethoxycarbonyl-5-(3,4-difluorophenyl)-2,3-dihydro-2(1H)-imidazolone]
Ki: 0.141 µM

COC(=O)c1[nH]c(=O)n(CCCCCN2CCN(c3ccccc3C(N)=O)CC2)c1-c1cc(F)c(F)cc1F [Compound 7, 1-(5-(4-(2-Aminocarbonylphenyl)piperazin-1-yl)pent-1-yl)-5-(2,4,5-trifluorophenyl)-2,3-dihydro-4-methoxylcarboxy-2(1H)-imidazolone]
Ki: 0.197 µM

COC(=O)c1[nH]c(=O)n(CCCCCN2CCC(C(=O)OC)(c3ccccc3)CC2)c1Cc1ccc(F)c(F)c1 [Compound 37, 5-(3,4-Difluorobenzyl)-2,3-dihydro-4-methoxycarbonyl-1-(5-(4-methoxycarbonyl-4-phenylpiperidin-1-yl)pent-1-yl)-2(1H) -imidazolone]
Ki: 0.513 µM
